Active and inactive are the calls of the source. The rule behind the calls is not given here.
Key:
Estrogen receptor [1] = molecular target: T1, Estrogen receptor (Homo sapiens, UniProt P03372)
T1 sequence (P03372 whole entry): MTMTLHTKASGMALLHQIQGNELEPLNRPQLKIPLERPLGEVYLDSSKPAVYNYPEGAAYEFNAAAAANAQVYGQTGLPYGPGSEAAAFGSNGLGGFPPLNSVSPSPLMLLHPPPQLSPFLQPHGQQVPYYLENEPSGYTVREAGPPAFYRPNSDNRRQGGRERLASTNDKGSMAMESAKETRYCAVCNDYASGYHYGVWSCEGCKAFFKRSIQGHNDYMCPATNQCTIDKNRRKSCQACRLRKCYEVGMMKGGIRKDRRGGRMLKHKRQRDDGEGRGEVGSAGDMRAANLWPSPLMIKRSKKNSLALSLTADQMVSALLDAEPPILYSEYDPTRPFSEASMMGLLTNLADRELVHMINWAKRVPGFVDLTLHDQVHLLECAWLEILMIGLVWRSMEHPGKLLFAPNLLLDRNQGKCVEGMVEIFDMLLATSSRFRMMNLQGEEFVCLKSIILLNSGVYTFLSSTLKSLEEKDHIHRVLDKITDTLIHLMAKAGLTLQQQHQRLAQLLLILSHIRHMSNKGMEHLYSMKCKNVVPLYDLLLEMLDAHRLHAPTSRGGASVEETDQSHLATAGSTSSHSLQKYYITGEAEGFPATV
Description: Binding affinity to human ER alpha

Estrogen receptor beta [2] = molecular target: T2, Estrogen receptor beta (Homo sapiens, UniProt Q92731)
T2 sequence (Q92731 whole entry): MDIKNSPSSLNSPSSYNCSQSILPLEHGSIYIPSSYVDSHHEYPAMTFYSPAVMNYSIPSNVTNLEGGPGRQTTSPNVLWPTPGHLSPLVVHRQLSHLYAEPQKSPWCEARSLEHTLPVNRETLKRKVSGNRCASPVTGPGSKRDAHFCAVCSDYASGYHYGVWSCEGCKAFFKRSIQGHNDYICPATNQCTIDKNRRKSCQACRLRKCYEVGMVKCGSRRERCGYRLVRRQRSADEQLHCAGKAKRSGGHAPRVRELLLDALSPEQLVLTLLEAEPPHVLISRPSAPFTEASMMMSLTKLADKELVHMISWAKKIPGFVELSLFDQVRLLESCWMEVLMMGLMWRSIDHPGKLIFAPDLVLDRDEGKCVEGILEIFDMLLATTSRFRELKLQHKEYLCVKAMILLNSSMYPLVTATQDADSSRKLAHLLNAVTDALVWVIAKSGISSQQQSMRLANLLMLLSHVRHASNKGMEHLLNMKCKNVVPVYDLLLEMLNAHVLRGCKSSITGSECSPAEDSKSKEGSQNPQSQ

[3] = molecular target: T3, Estrogen receptor (Homo sapiens) (UniProt P03372); format: functional, cell-based; details: HeLa
T3 sequence (whole entry): T1 sequence (P03372 whole entry)

Estrogen receptor beta [4] = molecular target: T2, Estrogen receptor beta; test: Binding affinity to human ER beta upto 10 uM
[5] = Clearance in rat at 3 mg/kg, iv; format: ADME, organism-based; parameters: dose 3 mg/kg, route intravenous; details: in vivo
[6] = Terminal half life in rat at 3 mg/kg, iv; format: ADME, organism-based; parameters: dose 3 mg/kg, route intravenous; details: in vivo, read-out: beta t1/2 (converted)
Estrogen receptor [7] = molecular target: Estrogen receptor (Homo sapiens, UniProt P03372, G521R/L384M/M421G)
Chain of Estrogen receptor (Homo sapiens, UniProt P03372, G521R/L384M/M421G) (P03372 whole entry L384M/M421G/G521R): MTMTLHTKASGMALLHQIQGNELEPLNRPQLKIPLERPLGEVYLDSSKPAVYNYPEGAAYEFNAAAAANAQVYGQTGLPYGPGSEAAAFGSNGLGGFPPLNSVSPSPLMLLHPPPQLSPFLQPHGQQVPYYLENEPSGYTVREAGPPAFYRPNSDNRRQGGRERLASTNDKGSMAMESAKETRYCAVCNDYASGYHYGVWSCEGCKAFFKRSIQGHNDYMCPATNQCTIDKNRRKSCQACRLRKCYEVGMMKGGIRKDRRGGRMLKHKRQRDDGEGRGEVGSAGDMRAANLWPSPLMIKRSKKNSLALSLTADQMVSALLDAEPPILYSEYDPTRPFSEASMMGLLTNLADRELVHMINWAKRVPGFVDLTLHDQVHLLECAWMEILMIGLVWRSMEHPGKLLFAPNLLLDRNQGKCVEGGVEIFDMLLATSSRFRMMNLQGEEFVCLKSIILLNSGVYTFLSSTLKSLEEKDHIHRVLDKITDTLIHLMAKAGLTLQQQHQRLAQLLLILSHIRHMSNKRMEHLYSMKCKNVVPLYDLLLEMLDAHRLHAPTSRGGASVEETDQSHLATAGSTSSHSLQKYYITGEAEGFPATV

[8] = Cmax in BALB/c mouse at 4 mg/kg, ip; format: ADME, organism-based; parameters: dose 4 mg/kg, route intraperitoneal; details: in vivo
Estrogen receptor [9] = molecular target: T1, Estrogen receptor; test: Binding affinity to wild type ERalpha

Row | Structure (SMILES) | IC50 (Estrogen receptor [1]) | IC50 (Estrogen receptor beta [2]) | further results
1 | O=C1CCC2(Cc3ccccc3)Cc3cc(O)ccc3C2=C1c1ccc(OCCN2CCOCC2)cc1 (configuration not stated) | 710 nM | 230 nM | 
2 | CC1=C2c3ccc(O)cc3CC2(Cc2ccccc2)CCC1=O (configuration not stated) | 1500 nM |  | 
3 | CC1=C2c3ccc4nn[nH]c4c3CC2(Cc2ccccc2)CCC1=O (configuration not stated) | > 10000 nM | 5800 nM | 
4 | CC1=C2c3ccc4[nH]ncc4c3CC2(Cc2ccccc2F)CCC1=O (configuration not stated) | 3400 nM | 560 nM | 
5 | CC1=C2c3ccc4[nH]ncc4c3CC2(Cc2ccccc2)CCC1=O (configuration not stated) | > 10000 nM | 1200 nM | Activity [3]: inactive
6 | O=C1C=C2c3ccc4[nH]ncc4c3CC2(Cc2ccccc2)CC1 (configuration not stated) | > 10000 nM | > 10000 nM | 
7 | CC1=C2c3ccc4[nH]nnc4c3CC2(Cc2ccc(F)cc2)CCC1=O (configuration not stated) |  |  | Activity (Estrogen receptor beta [4]): inactive
8 | O=C1CCC2(Cc3ccccc3)Cc3cc(O)ccc3C2=C1c1ccc(OCCN2CCCCC2)cc1 (configuration not stated) | 380 nM | 180 nM | clearance [5]: 22 mL/min/kg; half-life [6]: 2 h; EC50 (Estrogen receptor [7]): 14 nM
9 | O=C1CCC2(Cc3ccc(Cl)cc3)Cc3cc(O)ccc3C2=C1c1ccc(OCCN2CCCCC2)cc1 (configuration not stated) | 1100 nM | 2200 nM | Cmax [8]: 500 nM; EC50 (Estrogen receptor [7]): 41 nM
10 | CC1=C2c3ccc(O)cc3CC2(Cc2ccc(Cl)cc2)CCC1=O (configuration not stated) |  |  | IC50 (Estrogen receptor [9]): 6800 nM
11 | CC1=C2c3ccc4[nH]ncc4c3CC2(Cc2cccc(F)c2)CCC1=O (configuration not stated) | > 10000 nM | 1600 nM | 
12 | CC1=C2c3ccc4nn[nH]c4c3CC2(Cc2ccc(F)cc2)CCC1=O (configuration not stated) |  | > 10000 nM | 
13 | O=C1CCC2(Cc3ccccc3)Cc3cc(O)ccc3C2=C1c1ccc(O)cc1 (configuration not stated) | 220 nM | 100 nM | clearance [5]: 39 mL/min/kg; half-life [6]: 1.5 h; EC50 (Estrogen receptor [7]): 11 nM
14 | CN(C)CCOc1ccc(C2=C3c4ccc(O)cc4CC3(Cc3ccccc3)CCC2=O)cc1 (configuration not stated) | 1200 nM | 560 nM | 
15 | O=C1CCC2(Cc3ccccc3)Cc3c(ccc4[nH]ncc34)C2=C1c1ccc(OCCN2CCCCC2)cc1 (configuration not stated) | 620 nM | 130 nM | EC50 (Estrogen receptor [7]): 300 nM
16 | CC1=C2c3ccc4[nH]ncc4c3CC2(Cc2ccc(F)cc2)CCC1=O (configuration not stated) |  | > 1000 nM | 

Reference: ChEMBL document CHEMBL1149487, “A structure-guided approach to an orthogonal estrogen-receptor-based gene switch activated by ligands suitable for in vivo studies” (J Med Chem, 2006)
